Experimental data reported in US9221810B2, “Substituted bicyclic aromatic compounds as S-nitrosoglutathione reductase inhibitors” (Nivalis Therapeutics, Inc., priority 2010, dated 2015).

What was measured:
[1] = tested on: cigarette smoke-induced COPD (subchronic 11 day); experiment: Subchronic (11 day) cigarette smoke exposure COPD model; type: in vivo, female C57Bl/6 mice
Method: The efficacy of GSNOR inhibitors was assessed in a mouse model of chronic obstructive pulmonary disease (COPD) induced by short duration (4 days or 11 days) of exposure to cigarette smoke. Infiltration of inflammatory cells into the bronchoalveolar lavage fluid (BALF) and BALF levels of chemokines involved in inflammation and tissue turnover/repair were measured to assess the influences of GSNOR inhibitors on some of the early events associated with the initiation and progression of COPD.
Efficacy of GSNOR inhibitors against COPD was explored using acute (4 day) and subchronic (11 day) models of cigarette smoke-induced COPD in mice. […] In animal models, changes in lung pathology are only evident after extended (several months) duration of exposure to cigarette smoke, thus making chronic models prohibitive as effective screening tools. More recently, models exploring inflammatory responses after short duration (2 weeks or less) of smoke exposure in mice have been utilized as tools for screening efficacy and mechanisms of action of novel therapeutics against COPD. The key roles of inflammation in the initiation and progression of COPD, make these short duration models relevant for initial tests of efficacy of novel therapeutics.
Subchronic (11 Day) Smoke Exposure Model: Female C57Bl/6 mice (N=10 per group) were exposed to cigarette smoke generated from Marlboro 100 cigarettes without filters. Exposure times were 25 min. on study day 1, 35 min. on study day 2, and 45 min. on study days 3 to 11. GSNOR inhibitors were administered one hour prior to smoke exposure on each day. GSNOR inhibitors were dosed orally at 1 to 10 mg/kg/day for 11 days. The effects of GSNOR inhibitors were assessed by quantitating the number of total cells, and leukocytes differentials in the BALF via light microscopy at 24 h after the last exposure. The effect of GSNOR inhibitors were compared to vehicle treated controls and expressed as percent inhibition of the cigarette smoke induced increases in BALF cell numbers. Roflumilast was used as the positive control for the study and was dosed at 5 mg/kg/day. A group of naïve mice (N=10) was exposed to air and dosed with vehicle as a negative control for the study.

[2] = tested on: mouse model of ovalbumin (OVA)-induced asthma; experiment: Mouse model of ovalbumin (OVA)-induced asthma: MCh-induced AHR (Penh) and eosinophil infiltrate in BALF; type: in vivo; settings: three oral doses of 10 mg/kg at 48 h, 24 h, and 1 h prior to assessment; p<0.05
Method: A mouse model of ovalbumin (OVA)-induced asthma was used to screen GSNOR inhibitors for efficacy against methacholine (MCh)-induced bronchoconstriction/airway hyper-responsiveness. This is a widely used and well characterized model that presents with an acute, allergic asthma phenotype with similarities to human asthma. Efficacy of GSNOR inhibitors was assessed using a protocol in which GSNOR inhibitors were administered after OVA sensitization and airway challenge, and prior to challenge with MCh. Bronchoconstriction in response to challenge with increasing doses of MCh was assessed using whole body plethysmography (Penh; Buxco). The amount of eosinophil infiltrate into the bronchoaveolar lavage fluid (BALF) was also determined as a measure of lung inflammation. The effects of GSNOR inhibitors were compared to vehicles and to Combivent (inhaled; IH) as the positive control.
OVA (500 μg/ml) in PBS was mixed with equal volumes of 10% (w/v) aluminum potassium sulfate in distilled water and incubated for 60 min. at room temperature after adjustment to pH 6.5 using 10 N NaOH. After centrifugation at 750×g for 5 min, the OVA/alum pellet was resuspended to the original volume in distilled water. Mice received an intraperitoneal (IP) injection of 100 μg OVA (0.2 mL of 500 μg/mL in normal saline) complexed with alum on day 0. Mice were anesthetized by IP injection of a 0.2-mL mixture of ketamine and xylazine (0.44 and 6.3 mg/mL, respectively) in normal saline and were placed on a board in the supine position. Two hundred fifty micrograms (100 μl of a 2.5 mg/ml) of OVA (on day 8) and 125 μg (50 μl of 2.5 mg/ml) OVA (on days 15, 18, and 21) were placed on the back of the tongue of each animal.
In vivo airway responsiveness to methacholine was measured 24 h after the last OVA challenge in conscious, freely moving, spontaneously breathing mice with whole body plethysmography using a Buxco chamber (Wilmington, N.C.). […] The degree of bronchoconstriction was expressed as enhanced pause (Penh), a calculated dimensionless value, which correlates with the measurement of airway resistance, impedance, and intrapleural pressure in the same mouse. Penh readings were taken and averaged for 4 min. after each nebulization challenge. Penh is calculated as follows: Penh=[(Te/Tr−1)×(PEF/PIF)], where Te is expiration time, Tr is relaxation time, PEF is peak expiratory flow, and PIF is peak inspiratory flow×0.67 coefficient. […]
After measurement of airway hyper-reactivity, the mice were exsanguinated by cardiac puncture, and then BALF was collected from either both lungs or from the right lung after tying off the left lung at the mainstem bronchus. Total BALF cells were counted from a 0.05 mL aliquot, and the remaining fluid was centrifuged at 200×g for 10 min at 4° C. […]

| Compound | inhibition of lymphocytes in BALF ([1]; oral 5 mg/kg/day) [%] | inhibition of macrophages in BALF ([1]; oral 5 mg/kg/day) [%] | inhibition of neutrophils in BALF ([1]; oral 5 mg/kg/day) [%] | inhibition of total cells in BALF ([1]; oral 5 mg/kg/day) [%] | inhibition of smoke-induced increase in eosinophils in BALF ([1]; oral 10 mg/kg/day for 11 days) [%] | inhibition of smoke-induced increase in lymphocytes in BALF ([1]; oral 10 mg/kg/day for 11 days) [%] | inhibition of smoke-induced increase in macrophages in BALF ([1]; oral 10 mg/kg/day for 11 days) [%] | inhibition of smoke-induced increase in neutrophils in BALF ([1]; oral 10 mg/kg/day for 11 days) [%] | inhibition of smoke-induced increase in total cells in BALF ([1]; oral 10 mg/kg/day for 11 days) [%] | decrease of eosinophil infiltration in BAL [2] | dose response of effect ([1]; 1, 5, or 10 mg/kg/day) | effects compared to roflumilast (positive control) ([1]; subchronic 11 day model, roflumilast 5 mg/kg/day) |
| --- | --- | --- | --- | --- | --- | --- | --- | --- | --- | --- | --- | --- |
| O=C(O)c1ccc(-c2ccc3cc(O)ccc3n2)cc1 [Example 3, 4-(6-hydroxyquinolin-2-yl)benzoic acid] | 46 | 23 | 29 | 22 | 70 | 49 | 24 | 41 | 25 | 42 % of vehicle control |  |  |
| O=C(O)c1ccc(-c2ccc3cc(O)ccc3n2)c(Cl)c1 [Example 8, 3-chloro-4-(6-hydroxyquinolin-2-yl)benzoic acid] |  |  |  |  |  |  |  |  |  | 37 % of vehicle control | no dose response of effect | comparable to those of roflumilast |
